Active and inactive are the calls of the source. The calls are words filed in the database; no cut-off is given here.
Assays:
[1] = Cytotoxicity against mouse P388D1 cells after 48 hrs by MTT assay; format: functional, cell-based; settings: P388D1, 48 h
HeLa = experiment: Cytotoxicity against human HeLa cells after 48 hrs by MTT assay; format: functional, cell-based
DNA [2] = experiment: Binding affinity to calf thymus DNA assessed as Scatchard binding constant by fluorescence quenching technique; format: nucleic-acid assay; settings: Bos taurus
DNA [3] = experiment: Binding affinity to calf thymus DNA assessed as hypochromicity at 50 uM by UV-vis absorption spectra; format: nucleic-acid assay; settings: Bos taurus
DNA [4] = experiment: Binding affinity to calf thymus DNA assessed as circular dichroism at 10 uM; format: nucleic-acid assay; settings: Bos taurus
DNA [5] = experiment: Binding affinity to calf thymus DNA assessed as increase in viscosity of DNA by viscometric titration; format: nucleic-acid assay; settings: Bos taurus

Kb (DNA [2]) | Activity (DNA [3]) | Activity (DNA [4]) | Activity (DNA [5]) | SMILES | IC50 [1] | IC50 (HeLa)
1.75 ×10⁵ /M |  |  |  | CN(C)CCCNc1cc2c3c(cccc3c1)C(=O)N(CCN(C)C)C2=O | 0.71 µM | 0.23 µM
0.97 ×10⁵ /M |  |  |  | CN(C)CCN1C(=O)c2cccc3cc(N4CCOCC4)cc(c23)C1=O | 9.44 µM | 0.53 µM
2.48 ×10⁵ /M | Active | Active | Active | CN(C)CCN1C(=O)c2cccc3cc(N4CCN(C)CC4)cc(c23)C1=O | 1.93 µM | 0.43 µM
1.06 ×10⁵ /M |  |  |  | CN(C)CCN1C(=O)c2cccc3cc(NCc4cccs4)cc(c23)C1=O | 9.46 µM | 3.54 µM
1.85 ×10⁵ /M | Active | Active | Active | CN(C)CCNc1cc2c3c(cccc3c1)C(=O)N(CCN(C)C)C2=O | 0.62 µM | 0.83 µM
0.79 ×10⁵ /M |  |  |  | CN(C)CCN1C(=O)c2cccc3cc(N4CCSCC4)cc(c23)C1=O | 36.3 µM | 2.34 µM
0.85 ×10⁵ /M |  |  |  | CN(C)CCN1C(=O)c2cccc3cc(N4CCCCC4)cc(c23)C1=O | 21.6 µM | 2.64 µM
1.23 ×10⁵ /M |  |  |  | CCCCNc1cc2c3c(cccc3c1)C(=O)N(CCN(C)C)C2=O | 9.42 µM | 3.24 µM

SMILES | Kb (DNA [2]) | Activity (DNA [3]) | Activity (DNA [4]) | Activity (DNA [5]) | IC50 [1] | IC50 (HeLa)
CN(C)CCN1C(=O)c2cccc3cc(N)cc(c23)C1=O [AMONAFIDE] | 1.05 ×10⁵ /M |  |  |  | 6.02 µM | 0.68 µM

Reference: ChEMBL document CHEMBL1140851, “Synthesis of new amonafide analogues via coupling reaction and their cytotoxic evaluation and DNA-binding studies” (Bioorg Med Chem, 2009)
